Data on seven molecules can be found in patent publication US12343326B2, “Psychoactive medicines and their use for treating psychiatric and neurological conditions and disorders” (Transcend Therapeutics, Inc., priority 2021, dated 2025).

One series deals with Male Sprague Dawley rats. Nature of the series: Forced Swim Test (FST). It counts as in vivo, rat. The text has this:
The Forced Swim Test (FST) is a classic, and the most used preclinical behavioral assay to screen compounds with antidepressant-like activity and has high predictive and face validity (Porsolt et al. (1977) Nature 266:730; Borsini and Meli (1988) Psychopharmacology 94:147). The premise of the FST is that when rats are placed into a cylinder filled with water, they will initially try to escape, but over time will become immobile. This increased immobility reflects behavioral despair, modeling a depressive-like state.
Forced Swim Test (FST): In the FST trial, rats were placed in a circular plexiglass container filled with water, with no means of escape. Water temperature was maintained at 22-25° C. and changed for every animal. After an acclimation period, rats were timed for inactivity (failure to struggle), activity, swim time and climbing time. Day 1 consisted of a 15 min acclimation trial, and Day 2 (24 h later) consisted of the 5 min test. A time sampling procedure was employed where animals were observed every 5 sec and scored for immobility, swimming, or climbing. Fluoxetine (10 mg/kg, IP, Sigma Aldrich) or 0.9% sterile saline vehicle (vehicle 3× group) were administered 23.5, 5, and 1 h before testing in the FST. […] The experimenter was blinded to treatment.
Forced Swim Test: In the FST trial, rats were placed in a circular plexiglass container filled with water, with no means of escape. Water temperature was maintained at 22-25° C. and changed for every animal. After an acclimation period, rats were timed for inactivity (failure to struggle), activity, swim time and climbing time. Day 1 consisted of a 15 min acclimation trial, and Day 2 (24 h later) consisted of the 5 min test. A time sampling procedure was employed where animals were observed every 5 sec and scored for immobility, swimming, or climbing. Fluoxetine (10 mg/kg, IP, Sigma Aldrich) or 0.9% sterile saline vehicle (vehicle 3× group) were administered 23.5, 5, and 1 h before testing in the FST. 2C-B (2.5, 10, or 20 mg/kg, IP, Cayman Chemical) or 0.9% saline vehicle (vehicle 1× group) were administered 30 min prior to FST testing. The experimenter was blinded to treatment.
Drug Treatment: Fluoxetine (10 mg/kg, IP, Sigma Aldrich) or 0.9% sterile saline vehicle were administered 23.5, 5, and 1 h before testing in the FST. […] Control animals received fluoxetine alone, methylone alone, or saline vehicle.
Forced Swim Test: In the FST trial, rats were placed in a circular plexiglass container filled with water, with no means of escape. Water temperature was maintained at 22-25° C. and changed for every animal. After an acclimation period, rats were timed for inactivity (failure to struggle), activity, swim time and climbing time. The experimenter and scorer were blind to treatment group. Day 1 consisted of a 15 min acclimation trial, and Day 2 (24 h later) consisted of the 5 min test. A time sampling procedure was employed where animals were observed every 5 sec and scored for immobility, swimming, or climbing.
Control animals received saline vehicle. The dosing schedule and experimental design are found in FIG. 12A.
The FST was performed and scored by an experimenter blind to treatment group according to standard protocols and based on a “modified FST” procedure (Slattery and Cryan (2012) Nat Protoc, 7:1009). Briefly, rats were placed in a circular plexiglass container (29.2 cm diameter, 49.5 cm height) filled with water to a depth of 30 cm so rats could not support themselves by touching the bottom of the tank. Water was maintained at 22-25° C. and was changed for every animal. Day 1 (Training) consisted of a 15 min acclimation trial, and Day 2 (Testing, 24 h later) consisted of the 5 min test. […]

Series [1] relates to serotonergic terminals in the cortex and hippocampus. The conditions noted are these: 25 mg/kg IP every 12 hours for 4 days; 2 weeks post-treatment; cited from earlier work.
A further series relates to mice. Briefly: Mouse fear extinction paradigm (PTSD model). The settings on record: MBDB 5 mg/kg IP; day 2. The format is in vivo. The text has this: Effective PTSD treatments facilitate the disassociation between a traumatic memory and the patient's fear response, making cues for the traumatic memory evoke less of a fear response. This is modeled in the mouse fear extinction paradigm (see FIG. 9A) which takes place over 3 days. On day 1 (fear conditioning), mice are trained to acquire a “traumatic memory,” namely associating the conditioned stimulus (CS, tone) to the unconditioned stimulus (US, foot shock). On day 2 (extinction training), they are trained to forget the traumatic memory association by presenting the CS 6 times (with no US) in a novel environment. On day 3 (extinction recall), the mice are “asked” if that tone (CS) still elicits a fearful response, as measured by the time spent freezing when the tone is presented. Less time freezing means better extinction recall. Drugs that improve extinction recall reduce freezing time on day 3, and, therefore, show potential as a PTSD treatment.

In a further series the test system is experienced drug users. The conditions noted are these: cited from earlier work.
Series [2] concerns rats with reserpine-induced pain sensitivity. Nature of the series: Reserpine-induced fibromyalgia model, von Frey test. It counts as in vivo, rat. The settings on record: 2C-B 10 and 20 mg/kg; duloxetine positive control; 60-min post-injection. As to the method: Reserpine (1 mg/kg/s.c.) is administered for 3 days to mimic chronic widespread pain and complex symptoms.
In this Example, male Sprague Dawley rats are tested in a behavioral model of FMA based on the protocol from Nakagura et al. (2009) Pain 146:26. This model uses three daily doses of reserpine (1 mg/kg, SC) or 0.5% acetic acid vehicle to reduce pain thresholds (i.e., increase pain perception) in the Von Frey Test (vFT, procedure outlined below).
Von Frey Test (vFT) procedure: Increasing pain thresholds in this test are consistent with a reduction in pain perception. Prior to the start of dosing, rats are tested for their baseline mechanical pain threshold. For von Frey measurements, animals are placed into wire bottom cubicles with opaque Plexiglas walls, allowing access to the underside of their paws. Animals are habituated to this environment for at least 30 minutes before the start of the von Frey filament application. Static allodynia is measured using Semmes-Weinstein von Frey filaments (Stoelting, Wood Dale, IL). Mechanical allodynia is tested by touching the plantar surface of the animals' left and right hind paws with von Frey filaments which deliver a calibrated amount of force. Each von Frey filament is presented perpendicularly to the plantar surface for approximately 6 seconds of constant application in either ascending or descending strength in a modified up-and-down method (Chaplan et al. (1994) J Neurosci. Meth. 53:55). Stimulation is presented at intervals of several seconds, allowing for apparent resolution of any behavioral responses to previous stimuli. A positive response is noted if the paw is sharply withdrawn. Flinching immediately upon removal of the hair is also considered a positive response. […]
VonFrey measurements: Animals were placed into wire bottom cubicles with opaque Plexiglas walls, allowing access to the underside of their paws. […] Static allodynia was measured using Semmes-Weinstein von Frey filaments (Stoelting, Wood Dale, IL). […] The average hindpaw thresholds were determined 60-min post-injection. […]

A further series has as its system Male C57Bl/6 mice. Briefly: Cisplatin chemotherapy-induced peripheral neuropathy (CIPN) model, von Frey test. The format is in vivo, mouse. As to the method: Cisplatin, a platinum-based chemotherapy agent has been used to reduce pain thresholds in a model of CIPN. Effects of acute (single higher dose) or sub-chronic (7 days repeated lower dose) 2C-B on pain thresholds were investigated in cisplatin-treated animals compared with vehicle or cisplatin-treated controls.
Methods: Male C57Bl/6 mice aged 12-16 weeks were used. Cisplatin (2.5 mg/kg) or vehicle was administered on days 1-5 and 11-15.
Vehicle, sub-chronic 2C-B (5 mg/kg once daily days 17-23) or acute 2C-B (20 mg/kg once on day 17) was then administered IP (N=16-18/group). VonFrey testing took place on day 17 (30 min post-dose) and days 21 and 24 (pre-dose) to monitor the effects of 2C-B in cisplatin treated animals, compared with animals receiving cisplatin+vehicle or vehicle+vehicle.
For von Frey measurements, animals were placed into wire bottom cubicles with opaque Plexiglas walls, allowing access to the underside of their paws. Animals were habituated to this environment for at least 30 minutes before the start of the von Frey filament application. Static allodynia was measured using Semmes-Weinstein von Frey filaments (Stoelting, Wood Dale, IL). Mechanical allodynia was tested by touching the plantar surface of the animals' right and left hind paws with von Frey filaments which deliver a calibrated amount of force (0.07, 0.16, 0.4, 0.6. 1.0, 2.0, 4.0, 6.0 g). […]

The test system of series [3] is rats (Sprague Dawley; Flinders Sensitive Line). The settings on record: cited from earlier work.

“Also recorded” adds a separate entry of the source. Where two headings read alike, the source gives them in different places.

Regarding `CCC(Cc1ccc2c(c1)OCO2)NC` (racemic) [MBDB, N-methyl-1-(1,3-benzodioxol-5-yl)-2-aminobutane], the “immobility (FST)” value with Male Sprague Dawley rats (MBDB 5-30 mg/kg IP, 30 min before testing) is “significantly reduced immobility”. Further, the “serotonergic terminals in the cortex and hippocampus destroyed” value in series [1] is on record as 55-60%. In the series on mice, the “extinction acquisition (freezing, first trial of extinction training)” value is “improved extinction acquisition; also recorded: significantly reduced” and the locomotor activity entry is recorded as “small, but significant increase in locomotor activity”. The serious adverse effects result with experienced drug users (self-administered under supervision, dose 100 to 300 mg) is given as “no serious adverse effects”.
In the case of `COc1cc(CCN)c(OC)cc1Br` [2C-B, 4-Bromo-2,5-dimethoxyphenethylamine], the “animals with complete (maximal) reversal of reserpine-induced pain sensitivity” value in series [2] is on record as 100%. For the same molecule, the “climbing (FST)” value with Male Sprague Dawley rats (2C-B high-dose group only) was “significantly decreased”. Further, in the series with Male Sprague Dawley rats (single dose of 2C-B 30 minutes before testing), the “swimming (FST)” value is recorded as “significant increase in swimming”. For the same molecule, in the series with experienced drug users (self-administered, dose 10 to 20 mg), the serious adverse effects entry is on record as “no serious adverse effects”. Moreover, the “effect of repeated doses in CIPN model” value in the series on Male C57Bl/6 mice (repeated doses of 5 mg/kg, once daily days 17-23) is “sustained beneficial effect”. In the series with Male C57Bl/6 mice (within 30 min of a single dose, 5 or 20 mg/kg IP, day 17), the “pain thresholds (von Frey) in cisplatin-treated animals” value is “significantly increased”.
For `CCN(CC)C(=O)[C@@H]1C=C2c3cccc4[nH]cc(c34)C[C@H]2N(C)C1` [LSD, lysergic acid-N,N-diethylamide], the “reduction in immobility (FST)” value in series [3] (Hibicke et al. (2020)) is given as 38%.
For the molecule `CNCC[C@H](Oc1cccc2ccccc12)c1cccs1` [duloxetine, reference compound], the “animals with complete (maximal) reversal of reserpine-induced pain sensitivity” value in series [2] came to 44%.
Take `CNCCC(Oc1ccc(C(F)(F)F)cc1)c1ccccc1` (stereo not drawn) [fluoxetine, reference compound]: the “swimming behavior (FST)” value in the series with Male Sprague Dawley rats (Example 8) was “significantly increased swimming behavior”.
For the molecule `CNC1(c2ccccc2Cl)CCCCC1=O` (stereo not drawn) [ketamine], the “reduction in immobility (FST)” value in series [3] (Hibicke et al. (2020)) is 30%; in series [3] (Tizabi et al. (2012)) it was 60%; in series [3] (Yang et al. (2013)) it was 25-55%.
As for `CN(C)CCc1c[nH]c2cccc(OP(=O)(O)O)c12` [psilocybin], the “reduction in immobility (FST)” value in series [3] (Hibicke et al. (2020)) was 67%.
